These results are taken from ChEMBL document CHEMBL1201862, “PubChem BioAssay data set” (2004).

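Five concentrations, 48 hours, 96-well plates. The concentration for 50% growth inhibition is given as GI50.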 Active and inactive are the calls of the source. No stated cut-off is given here; in the data, active = GI50 up to about 1.1 µM and inactive = higher.

Some test systems named below: SF-539; RPMI-8226; NCI/ADR-RES; HCC 2998; MOLT-4; RXF 393; 786-0; MCF7; OVCAR-8; SK-MEL-2; HOP-62; OVCAR-3; EKVX; UACC-62; OVCAR-4; K562; ACHN; PC-3; HT-29.
Assay in all cases: NCI tumour cell line growth inhibition, 48 h

On to `O=C1Oc2ccccc2C(=O)/C1=C/NC(=S)NCCc1ccccc1`, for which the GI50 with SF-539 was 31.2 µM (inactive); in the experiment on RPMI-8226, 35.2 µM (inactive); in the experiment with NCI/ADR-RES it was 38.7 µM (inactive); in the experiment with HCC 2998 it was 43.2 µM (inactive); with MOLT-4, 57.1 µM (inactive); in the experiment on RXF 393, 39.8 µM (inactive). Also, the GI50 with 786-0 was 38.7 µM (inactive); in the experiment with MCF7 it was 56.1 µM (inactive); with OVCAR-8 it was 29.2 µM (inactive); in the experiment with SK-MEL-2, 19.4 µM (inactive); in the experiment on HOP-62, 51.8 µM (inactive); with OVCAR-3 it was 67.1 µM (inactive). In addition, the GI50 in the experiment on EKVX was 63.7 µM (inactive); with UACC-62, 26.9 µM (inactive); in the experiment on OVCAR-4, 34.9 µM (inactive); in the experiment on K562, > 100 µM (inactive); with ACHN it was 19.2 µM (inactive); in the experiment with PC-3, 39.8 µM (inactive). Further, the GI50 in the experiment with HT-29 was 68.1 µM (inactive).

As to `COC(OC)C1(c2ccccc2)Oc2ccccc2C1=O` (centres undefined), the GI50 in the experiment with SF-539 was > 100 µM (inactive); in the experiment with RPMI-8226, > 100 µM (inactive); with NCI/ADR-RES, 80.7 µM (inactive); in the experiment on HCC 2998, > 100 µM (inactive); in the experiment on MOLT-4, 68.7 µM (inactive); in the experiment on RXF 393 it was > 100 µM (inactive). For the same compound, the GI50 in the experiment on 786-0, with MCF7, in the experiment on OVCAR-8, with SK-MEL-2, with HOP-62 and in the experiment with OVCAR-3 was > 100 µM (inactive) throughout. Moreover, the GI50 with EKVX is > 100 µM (inactive); in the experiment with UACC-62, > 100 µM (inactive); in the experiment on OVCAR-4 it was > 100 µM (inactive); in the experiment with K562, 65.2 µM (inactive); in the experiment with ACHN, > 100 µM (inactive); with PC-3, > 100 µM (inactive). Moreover, the GI50 in the experiment with HT-29 was > 100 µM (inactive).

For `CCCCOC(=O)Nc1ccc(S(=O)(=O)Nc2ccccc2Cl)cc1`, the GI50 with SF-539 is 17.6 µM (inactive); in the experiment with RPMI-8226, 16.3 µM (inactive); in the experiment with NCI/ADR-RES, 18.2 µM (inactive); with HCC 2998 it was 14.1 µM (inactive); with MOLT-4 it was 12.6 µM (inactive); with RXF 393, 21.3 µM (inactive). Further, the GI50 with 786-0 is 21.5 µM (inactive); in the experiment on MCF7, 19.2 µM (inactive); in the experiment on OVCAR-8 it was 21.3 µM (inactive); in the experiment with SK-MEL-2, 18.1 µM (inactive); in the experiment on HOP-62, 21.7 µM (inactive); with OVCAR-3, 19.1 µM (inactive). For the same compound, the GI50 was 20.7 µM (inactive) in the experiment on EKVX; 17.1 µM (inactive) in the experiment with UACC-62; 12.4 µM (inactive) in the experiment on OVCAR-4; 17.5 µM (inactive) in the experiment with K562; 27.8 µM (inactive) in the experiment with ACHN; 24.9 µM (inactive) in the experiment with PC-3. The GI50 in the experiment with HT-29 is 21 µM (inactive).

In the case of `CCN(CC)C1Oc2cc3c(cc2C(c2cc(OC)c(O)c(OC)c2)C1C)OCO3` (centres undefined), the GI50 in the experiment on SF-539 was 11.3 µM (inactive); in the experiment on RPMI-8226, 7.14 µM (inactive); in the experiment on NCI/ADR-RES, 5.92 µM (inactive); in the experiment with HCC 2998 it was 7.01 µM (inactive); in the experiment on MOLT-4, 6.08 µM (inactive); in the experiment with RXF 393, 6.95 µM (inactive). Moreover, the GI50 is 10.4 µM (inactive) in the experiment with 786-0; 4.85 µM (inactive) in the experiment with MCF7; 14.8 µM (inactive) in the experiment with OVCAR-8; 18.7 µM (inactive) in the experiment with SK-MEL-2; 10.1 µM (inactive) in the experiment on HOP-62; 7.21 µM (inactive) with OVCAR-3. Besides, the GI50 in the experiment with EKVX is 36.8 µM (inactive); in the experiment on UACC-62 it was 4.49 µM (inactive); with OVCAR-4 it was 22.3 µM (inactive); in the experiment with K562, 2.98 µM (inactive); in the experiment on ACHN, 18.3 µM (inactive); in the experiment with PC-3, 14.4 µM (inactive). In the experiment on HT-29, the GI50 was 7.31 µM (inactive).

Take `O=C(O)c1ccc(C2=Nc3cccc4cccc(c34)N2)cc1`: the GI50 in the experiment on SF-539 is > 100 µM (inactive); in the experiment on RPMI-8226 it was > 100 µM (inactive); in the experiment with NCI/ADR-RES, > 100 µM (inactive); with HCC 2998 it was > 100 µM (inactive); in the experiment on MOLT-4 it was 25.4 µM (inactive); with RXF 393, > 100 µM (inactive). In addition, the GI50 in the experiment on 786-0, with MCF7, in the experiment with OVCAR-8, in the experiment with SK-MEL-2, with HOP-62 and in the experiment with OVCAR-3 was > 100 µM (inactive) throughout. The GI50 in the experiment with EKVX, in the experiment on UACC-62, in the experiment with OVCAR-4, with K562, with ACHN and in the experiment with PC-3 was > 100 µM (inactive) throughout. For the same compound, the GI50 with HT-29 is > 100 µM (inactive).

In the case of `C#CCn1c(I)cc2c(c1=O)COC(=O)[C@]2(O)CC`, the GI50 with SF-539, in the experiment on RPMI-8226, in the experiment on NCI/ADR-RES, with HCC 2998, in the experiment with MOLT-4 and in the experiment with RXF 393 was > 100 µM (inactive) throughout. Besides, the GI50 in the experiment with 786-0, with MCF7, in the experiment with OVCAR-8, with SK-MEL-2, in the experiment on HOP-62 and in the experiment with OVCAR-3 was > 100 µM (inactive) throughout. The GI50 in the experiment with EKVX, in the experiment on UACC-62, in the experiment on OVCAR-4, in the experiment on K562, with ACHN and in the experiment with PC-3 was > 100 µM (inactive) throughout. Also, the GI50 with HT-29 was > 100 µM (inactive).

`COC(=O)C1=C(C)NC(C)=C(C(=O)OC)C1c1ccccc1NO`: the GI50 with SF-539 is > 100 µM (inactive); with RPMI-8226, 48.9 µM (inactive); with NCI/ADR-RES, > 100 µM (inactive); in the experiment with HCC 2998, > 100 µM (inactive); in the experiment with MOLT-4 it was 27.4 µM (inactive); in the experiment on RXF 393, > 100 µM (inactive). In addition, the GI50 with 786-0, in the experiment on MCF7, with OVCAR-8, in the experiment on SK-MEL-2, in the experiment with HOP-62 and with OVCAR-3 was > 100 µM (inactive) in each case. In addition, the GI50 in the experiment on EKVX is > 100 µM (inactive); in the experiment on UACC-62, > 100 µM (inactive); with OVCAR-4, > 100 µM (inactive); in the experiment on K562, 20.1 µM (inactive); in the experiment on ACHN it was > 100 µM (inactive); in the experiment on PC-3, > 100 µM (inactive). Besides, the GI50 in the experiment with HT-29 is > 100 µM (inactive).

Turning to `CC(C)C[C@H](NC(=O)[C@H](CCc1ccccc1)NC(=O)c1ccc2ccccc2n1)B(O)O`, the GI50 in the experiment with SF-539 is < 0.01 µM (active); in the experiment with RPMI-8226, < 0.01 µM (active); in the experiment on NCI/ADR-RES it was 0.706 µM (active); in the experiment with HCC 2998, 0.0292 µM (active); with MOLT-4, < 0.01 µM (active); in the experiment with RXF 393 it was < 0.01 µM (active). Also, the GI50 in the experiment on 786-0 is < 0.0225 µM (active); with MCF7, < 0.01 µM (active); with OVCAR-8, 0.163 µM (active); with SK-MEL-2, < 0.01 µM (active); with HOP-62, 0.176 µM (active); in the experiment with OVCAR-3, < 0.01 µM (active). The GI50 in the experiment with EKVX is 0.264 µM (active); with UACC-62, 0.0973 µM (active); with OVCAR-4, 0.185 µM (active); with K562 it was 0.0439 µM (active); in the experiment with ACHN, < 0.01 µM (active); in the experiment on PC-3 it was 0.0731 µM (active). Also, the GI50 in the experiment on HT-29 is < 0.0113 µM (active).

As to `Cc1cc(S(=O)(=O)n2ccnc2Oc2cccc(Cl)c2)c(SSc2cc(Cl)c(C)cc2S(=O)(=O)n2ccnc2Oc2cccc(Cl)c2)cc1Cl`, the GI50 is 4.54 µM (inactive) in the experiment on SF-539; 2.67 µM (inactive) in the experiment with RPMI-8226; 3.1 µM (inactive) in the experiment on NCI/ADR-RES; 20.7 µM (inactive) in the experiment with HCC 2998; 4.14 µM (inactive) in the experiment with MOLT-4; 3.08 µM (inactive) in the experiment with RXF 393. Further, the GI50 in the experiment on 786-0 was 6.79 µM (inactive); with MCF7, 3.21 µM (inactive); in the experiment with OVCAR-8, 6.59 µM (inactive); in the experiment with SK-MEL-2, 7.66 µM (inactive); with HOP-62, 9.57 µM (inactive); in the experiment on OVCAR-3 it was 8.02 µM (inactive). For the same compound, the GI50 is 4 µM (inactive) with EKVX; 5.7 µM (inactive) with UACC-62; 9.57 µM (inactive) in the experiment with OVCAR-4; 9.93 µM (inactive) in the experiment on K562; 8.36 µM (inactive) in the experiment on ACHN; 6.11 µM (inactive) with PC-3. In addition, in the experiment with HT-29, the GI50 was 7.83 µM (inactive).

On to `CCCCc1cc2c(C)cc(=O)oc2c(O)c1O`, for which the GI50 in the experiment with SF-539 is 21.8 µM (inactive); in the experiment on RPMI-8226 it was 17.5 µM (inactive); in the experiment on NCI/ADR-RES, 22.6 µM (inactive); in the experiment with HCC 2998, 3.15 µM (inactive); with MOLT-4, 25.2 µM (inactive); in the experiment on RXF 393, 24.8 µM (inactive). In addition, the GI50 in the experiment with 786-0 is 33.9 µM (inactive); in the experiment on MCF7, 21.4 µM (inactive); in the experiment on OVCAR-8 it was 31.6 µM (inactive); with SK-MEL-2, 3.6 µM (inactive); in the experiment on HOP-62 it was 23.3 µM (inactive); in the experiment on OVCAR-3 it was 29.1 µM (inactive). Besides, the GI50 with EKVX was 52.8 µM (inactive); with OVCAR-4, 32.1 µM (inactive); in the experiment with K562, 27.4 µM (inactive); in the experiment on ACHN, 33 µM (inactive); with PC-3, 21.3 µM (inactive); with HT-29, 27.9 µM (inactive).
